Data taken from patent EP0103381B1, “Substituted anthra(1,9-cd)pyrazol-6(2H)-ones” (WARNER-LAMBERT COMPANY, priority 1982, dated 1984).

Experiments:
Aerobacter aerogenes = experiment: agar plate paper-disc inhibition zone screening; type: cell-based; settings: Klebsiella aerogenes, read-out: Inhibition Zone Diameter mm (Dose mg/ml) A. Aerogenes; for zone of inhibition at 3000 µg/mL: Dose 3.0 mg/ml; for zone of inhibition at 500 µg/mL: Dose 0.5 mg/ml
Method in brief: (§1)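 Read-out: diameter (mm) of the inhibition zone around 12.7 mm paper discs after overnight (18-20 h) incubation at 37°C. Discs carried compound at 3,000-10 mcg/ml in alcohol, DMSO or DMF, final solvent <10%. Seeded agar trays used saline-suspended cells adjusted to 20-35% transmittancy.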

Bacillus subtilis = experiment: agar plate paper-disc inhibition zone screening; type: cell-based; settings: read-out: Inhibition Zone Diameter mm (Dose mg/ml) B. Subtilis; for zone of inhibition at 500 µg/mL: Dose 0.5 mg/ml; for zone of inhibition at 3000 µg/mL: Dose 3.0 mg/ml; for zone of inhibition at 1000 µg/mL: Dose 1.0 mg/ml
Method in brief: as §1

Streptococcus faecalis = experiment: agar plate paper-disc inhibition zone screening; type: cell-based; settings: Enterococcus faecalis, read-out: Inhibition Zone Diameter mm (Dose mg/ml) S. Faecalis; for zone of inhibition at 3000 µg/mL: Dose 3.0 mg/ml; for zone of inhibition at 1000 µg/mL: Dose 1.0 mg/ml
Method in brief: as §1

Escherichia coli = experiment: agar plate paper-disc inhibition zone screening; type: cell-based; settings: read-out: Inhibition Zone Diameter mm (Dose mg/ml) E. Coli; for zone of inhibition at 3000 µg/mL: Dose 3.0 mg/ml; for zone of inhibition at 500 µg/mL: Dose 0.5 mg/ml; for zone of inhibition at 1000 µg/mL: Dose 1.0 mg/ml
Method in brief: as §1

[1] = test system: lymphocytic leukemia P388; experiment: in vivo lymphocytic leukemia P388 test; design: species or system mice; settings: Mus musculus, P388, ip, 720 h, two single doses four days apart, read-out: T/C × 100 (Percent); for response vs control in vivo at 25 mg/kg: P388, Dose 25 mg/kg intraperitoneally; for response vs control in vivo at 1.56 mg/kg: P388, Dose 1.56 mg/kg intraperitoneally; for response vs control in vivo at 3.12 mg/kg: P388, Dose 3.12 mg/kg intraperitoneally; for response vs control in vivo at 6.25 mg/kg: P388, Dose 6.25 mg/kg intraperitoneally; for response vs control in vivo at 12.5 mg/kg: P388, Dose 12.5 mg/kg intraperitoneally; for response vs control in vivo at 50 mg/kg: P388, Dose 50 mg/kg intraperitoneally; for response vs control in vivo at 0.78 mg/kg: P388, Dose 0.78 mg/kg intraperitoneally
Procedure: The in vivo lymphocytic leukemia P388 test is carried out by the United States National Cancer Institute. The animals used are either male or female CD2F, mice. There are six to seven animals per test group. The tumor transplant is by intraperitoneal injection of dilute ascitic fluid containing cells of lymphocytic leukemia P388. The test compounds are administered intraperitoneally in two single doses with a four-day interval between doses at various dose levels following tumor inoculation. The animals are weighed and survivors are recorded on a regular basis for 30 days. A ratio of survival time for treated (T)/ control (C) animals is calculated. The criterion for efficacy is T/C x 100 > 125%. The positive control compound in this test is 1,4-dihydroxy-5,8-[bis[[2-[(2-hydroxyethyl)amino]-ethyl]amino]-9,10-anthracene- dione given at dosages ranging from 12.0 to 0.075 mg/kg. See Cancer Chemotherapy Reports, Part 3, 3, 1 (1972) for a comprehensive discussion of the protocol.

Penicillium avellaneum = experiment: agar plate paper-disc inhibition zone screening; type: cell-based; settings: Hamigera avellanea; Dose 3.0 mg/ml; read-out: Inhibition Zone Diameter mm (Dose mg/ml) P. Avellaneum
Method in brief: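 Mycelia and spores from a six-day 28°C agar culture, suspended in saline with 0.05% Tween 80 at 20% transmittancy, were seeded into molten agar trays. Compounds at 3,000, 1,000, 500, 100 and 10 mcg/ml (solvent <10%) were applied on 12.7 mm paper discs. After at least 20-24 h incubation, inhibition zone diameter was measured in mm.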

CCN(CC)CCNc1ccc2c3c(nn2CCO)-c2c(O)ccc(O)c2C(=O)c13 [Example 35, 5-[[2-(Diethylamino)ethyl]amino]-7,10-dihydroxy-2-(2-hydroxyethyl)anthra[1,9-cd]pyrazol-6(2H)-one]
zone of inhibition at 3000 µg/mL (Aerobacter aerogenes): 0 mm | zone of inhibition at 500 µg/mL (Bacillus subtilis): 14 mm | zone of inhibition at 3000 µg/mL (Streptococcus faecalis): 14 mm | zone of inhibition at 3000 µg/mL (Escherichia coli): 0 mm | response vs control in vivo at 25 mg/kg [1]: 128% | response vs control in vivo at 37.5 mg/kg ([1]; P388, Dose 37.5 mg/kg intraperitoneally): 135% | response vs control in vivo at 75 mg/kg ([1]; P388, Dose 75 mg/kg intraperitoneally): 135% | response vs control in vivo at 150 mg/kg ([1]; P388, Dose 150 mg/kg intraperitoneally): 155% | response vs control in vivo at 200 mg/kg ([1]; P388, Dose 200 mg/kg intraperitoneally): 167% | response vs control in vivo at 300 mg/kg ([1]; P388, Dose 300 mg/kg intraperitoneally): 177% | response vs control in vivo at 400 mg/kg ([1]; P388, Dose 400 mg/kg intraperitoneally): 190% | zone of inhibition at 3000 µg/mL (Penicillium avellaneum): 0 mm

CCN(CC)CCNc1ccc2c3c(nn2CCNCCO)-c2c(O)ccc(O)c2C(=O)c13 [Example 57, 5-[[2-(Diethylamino)ethyl]amino]-7,10-dihydroxy-2-[2-[(2-hydroxyethyl)amino]ethyl]anthra[1,9-cd]pyrazol-6(2H)-one]
zone of inhibition at 500 µg/mL (Aerobacter aerogenes): 14 mm | zone of inhibition at 500 µg/mL (Bacillus subtilis): 15 mm | zone of inhibition at 1000 µg/mL (Streptococcus faecalis): 14 mm | zone of inhibition at 500 µg/mL (Escherichia coli): 14 mm | response vs control in vivo at 1.56 mg/kg [1]: 131% | response vs control in vivo at 3.12 mg/kg [1]: 148% | response vs control in vivo at 6.25 mg/kg [1]: 154% | response vs control in vivo at 12.5 mg/kg [1]: 177% | response vs control in vivo at 25 mg/kg [1]: 190% | response vs control in vivo at 50 mg/kg [1]: 241% | zone of inhibition at 3000 µg/mL (Penicillium avellaneum): 14 mm

O=C1c2c(O)ccc(O)c2-c2nn(CCNCCO)c3ccc(NCCNCCO)c1c23 [Example 54, 7,10-Dihydroxy-2-[2-[12-hydroxyethyl)amino]ethyl]-5-[[2-[(2-hydroxyethyl)amino]ethyl]amino]anthra[1,9-cdlpyrazol-6(2H)-one]
zone of inhibition at 3000 µg/mL (Aerobacter aerogenes): 15 mm | zone of inhibition at 3000 µg/mL (Bacillus subtilis): 14 mm | zone of inhibition at 3000 µg/mL (Streptococcus faecalis): 0 mm | zone of inhibition at 1000 µg/mL (Escherichia coli): 14 mm | response vs control in vivo at 1.56 mg/kg [1]: 158% | response vs control in vivo at 3.12 mg/kg [1]: 187% | response vs control in vivo at 6.25 mg/kg [1]: 206% | response vs control in vivo at 25 mg/kg [1]: 158% | response vs control in vivo at 50 mg/kg [1]: 139% | zone of inhibition at 3000 µg/mL (Penicillium avellaneum): 0 mm

CN(C)CCN(C)c1ccc2c3c(nn2CCNCCO)-c2c(O)ccc(O)c2C(=O)c13 [Example 65, 5-([2-(Dimethylamino)ethyl]methylamino]-7,10-dihydroxy-2-[2-[(2-hydroxyethyl)amino]ethyl]anthra[1,9-cd]pyrazol-6(2H)-one]
zone of inhibition at 500 µg/mL (Aerobacter aerogenes): 16 mm | zone of inhibition at 3000 µg/mL (Bacillus subtilis): 0 mm | zone of inhibition at 3000 µg/mL (Streptococcus faecalis): 0 mm | zone of inhibition at 3000 µg/mL (Escherichia coli): 15 mm | response vs control in vivo at 6.25 mg/kg [1]: 179% | response vs control in vivo at 12.5 mg/kg [1]: 188% | zone of inhibition at 3000 µg/mL (Penicillium avellaneum): 0 mm

CN(C)CCn1nc2c3c(c(NCCCN)ccc31)C(=O)c1c(O)ccc(O)c1-2 [Example 34, 5-[(3-Aminopropyl)amino]-2-[2-(dimethylamino)ethyl]-7,10-dihydroxyanthra[1,9-cd]pyrazol-6(2H)-one]
zone of inhibition at 3000 µg/mL (Aerobacter aerogenes): 14 mm | zone of inhibition at 3000 µg/mL (Bacillus subtilis): 0 mm | zone of inhibition at 3000 µg/mL (Streptococcus faecalis): 0 mm | zone of inhibition at 3000 µg/mL (Escherichia coli): 15 mm | response vs control in vivo at 6.25 mg/kg [1]: 196% | response vs control in vivo at 12.5 mg/kg [1]: 205% | zone of inhibition at 3000 µg/mL (Penicillium avellaneum): 0 mm

NCCNc1ccc2c3c(nn2CCNCCO)-c2c(O)ccc(O)c2C(=O)c13 [Example 55, 5-[(2-Aminoethyl)amino]-7,10-dihydroxy-2-[2-[(2-hydroxyethyl)amino]ethyl]anthra[1,9-cd]pyrazol-6(2H)-one]
zone of inhibition at 3000 µg/mL (Aerobacter aerogenes): 15 mm | zone of inhibition at 3000 µg/mL (Bacillus subtilis): 14 mm | zone of inhibition at 3000 µg/mL (Streptococcus faecalis): 0 mm | zone of inhibition at 1000 µg/mL (Escherichia coli): 14 mm | response vs control in vivo at 0.39 mg/kg ([1]; P388, Dose 0.39 mg/kg intraperitoneally): 175% | response vs control in vivo at 0.78 mg/kg [1]: 182% | response vs control in vivo at 1.56 mg/kg [1]: 173% | zone of inhibition at 3000 µg/mL (Penicillium avellaneum): 0 mm

CN(C)CCn1nc2c3c(c(NCCN)ccc31)C(=O)c1c(O)ccc(O)c1-2 [Example 33, 5-[(2-Aminoethyl)amino]-2-[2-(dimethylamino)ethyl]-7,10-dihydroxyanthra[1,9-cd]pyrazol-6(2H)-one]
zone of inhibition at 500 µg/mL (Aerobacter aerogenes): 14 mm | zone of inhibition at 1000 µg/mL (Bacillus subtilis): 14 mm | zone of inhibition at 3000 µg/mL (Streptococcus faecalis): 16 mm | zone of inhibition at 500 µg/mL (Escherichia coli): 14 mm | response vs control in vivo at 3.12 mg/kg [1]: 182% | response vs control in vivo at 6.25 mg/kg [1]: 182% | zone of inhibition at 3000 µg/mL (Penicillium avellaneum): 0 mm

CN(C)CCNc1ccc2c3c(nn2CCNCCO)-c2c(O)ccc(O)c2C(=O)c13 [Example 56, 5-[[2-(Dimethylamino)ethyl]amino]-7,10-dihydroxy-2-[2-[(2-hydroxyethyl)amino]ethyl]anthra[1,9-cd]pyrazol-6(2H)-one]
zone of inhibition at 500 µg/mL (Aerobacter aerogenes): 14 mm | zone of inhibition at 1000 µg/mL (Bacillus subtilis): 14 mm | zone of inhibition at 1000 µg/mL (Streptococcus faecalis): 14 mm | zone of inhibition at 500 µg/mL (Escherichia coli): 14 mm | response vs control in vivo at 0.78 mg/kg [1]: 152% | response vs control in vivo at 1.56 mg/kg [1]: 161% | response vs control in vivo at 3.12 mg/kg [1]: 165% | response vs control in vivo at 6.25 mg/kg [1]: 165% | response vs control in vivo at 25 mg/kg [1]: 88% | zone of inhibition at 3000 µg/mL (Penicillium avellaneum): 0 mm

CN1CCN(c2ccc3c4c(nn3CCNCCO)-c3c(O)ccc(O)c3C(=O)c24)CC1 [Example 64, 7,10-Dihydroxy-2-[2-[(2-hydroxyethyl)amino]ethyl]-5-(4-methyl-1-piperazinyl)anthra[1,9-cd]pyrazol-6(2H)-one]
zone of inhibition at 500 µg/mL (Aerobacter aerogenes): 17 mm | zone of inhibition at 3000 µg/mL (Bacillus subtilis): 0 mm | zone of inhibition at 3000 µg/mL (Streptococcus faecalis): 0 mm | zone of inhibition at 1000 µg/mL (Escherichia coli): 14 mm | response vs control in vivo at 6.25 mg/kg [1]: 163% | response vs control in vivo at 12.5 mg/kg [1]: 169% | response vs control in vivo at 25 mg/kg [1]: 150% | zone of inhibition at 3000 µg/mL (Penicillium avellaneum): 0 mm

CCN(CC)CCn1nc2c3c(c(NCCNCCO)ccc31)C(=O)c1ccccc1-2 [Example 2]
zone of inhibition at 500 µg/mL (Aerobacter aerogenes): 18 mm | zone of inhibition at 100 µg/mL (Bacillus subtilis; Dose 0.1 mg/ml): 16 mm | zone of inhibition at 500 µg/mL (Streptococcus faecalis; Dose 0.5 mg/ml): 15 mm | zone of inhibition at 100 µg/mL (Escherichia coli; Dose 0.1 mg/ml): 14 mm | response vs control in vivo at 0.78 mg/kg [1]: 135% | response vs control in vivo at 1.56 mg/kg [1]: 142% | response vs control in vivo at 25 mg/kg [1]: 197% | zone of inhibition at 3000 µg/mL (Penicillium avellaneum): 0 mm

O=C1c2c(O)ccc(O)c2-c2nn(CCNCCO)c3ccc(NCCCNCCO)c1c23 [Example 62, 7,10-Dihydroxy-2-[2-[(2-hydroxyethyl)amino]ethyl]-5-[[3-[(2-hydroxyethyt)amino]propyl]amino]anthra[1,9-cd] pyrazol-6(2H)-one]
zone of inhibition at 500 µg/mL (Aerobacter aerogenes): 14 mm | zone of inhibition at 1000 µg/mL (Bacillus subtilis): 16 mm | zone of inhibition at 3000 µg/mL (Streptococcus faecalis): 14 mm | zone of inhibition at 500 µg/mL (Escherichia coli): 14 mm | response vs control in vivo at 3.12 mg/kg [1]: 173% | zone of inhibition at 3000 µg/mL (Penicillium avellaneum): 0 mm
